Test results as given in patent US20020026052A1, “3-cyanoquinolines, 3-cyano-1,6-naphthyridines, and 3-cyano-1,7-naphthyridines as protein kinase inhibitors” (American Home Products Corporation, priority 2000, published 2002).

For `Cn1ccnc1Sc1ccc(Nc2c(C#N)cnc3cc(-c4ccc(N5CCC(O)CC5)nc4)ccc23)cc1Cl` [Example 214, 4-({3-Chloro-4-[(1-methyl-1H-imidazol-2-yl)sulfanyl]phenyl}amino)-7-[6-(4-hydroxy-1-piperidinyl)-3-pyridinyl]-3-quinolinecarbonitrile], the melting point was 178 to 180 °C.
In the case of `COc1cc(Nc2c(C#N)cnc3cc(-c4ccc(N5CCOCC5)nc4)ccc23)c(Cl)cc1Cl` [Example 185, 4-(2,4-Dichloro-5-methoxyanilino)-7-[6-(4-morpholinyl)-3-pyridinyl]-3-quinolinecarbonitrile], the melting point is reported as over 260 °C.
`COc1cc(Nc2c(C#N)cnc3ccc(-c4csc(C=O)c4)cc23)c(Cl)cc1Cl` [Example 45, 4-(2,4-Dichloro-5-methoxyanilino)-6-(5-formyl-3-thienyl)-3-quinolinecarbonitrile] showed a melting point of 233 to 237 °C.
For `COc1ccc(-c2cc3ncc(C#N)c(Nc4ccc(Sc5nccn5C)c(Cl)c4)c3cc2OC)cc1` [Example 127, 4-{3-Chloro-4-[(I -methyl-iH-imidazol-2-yl)sulfanyl]anilino}-6-methoxy-7-(4-methoxyphenyl)-3-quinolinecarbonitrile], the melting point was 227 to 229 °C.
In the case of `Cn1ccnc1Sc1ccc(Nc2c(C#N)cnc3ccc(-c4ccc(CN5CCOCC5)cn4)cc23)cc1Cl` [Example 182, 4-({3-Chloro-4-[(1-methyl-1H-imidazol-2-yl)sulfanyl]phenyl}amino)-6-[5-(4-morpholinylmethyl)-2-pyridinyl]-3-quinolinecarbonitrile], the melting point is reported as 238 to 241 °C.
With `CN1CCN(c2ccc(-c3ccc4c(Nc5ccc(Sc6nccn6C)c(Cl)c5)c(C#N)cnc4c3)cn2)CC1` [Example 196, 4-{3-Chloro-4-[(1-methyl-1H-irnidazol-2-yl)sulfanyl]anilino}-7-[6-(4-methyl-1-piperazinyl)-3-pyridinyl]-3-quinolinecarbonitrile] the melting point was 227 to 279 °C.
Work on `COc1cc(Nc2c(C#N)cnc3cc(-c4csc(C5OCCO5)c4)ccc23)c(Cl)cc1Cl` [Example 42, 4-(2,4-dichloro-5-methoxyanilino)-7-[5-(1,3-dioxolan-2-yl)-3-thienyl]-3-quinoline-carbonitrile] yielded a melting point of 234 to 236 °C.
In the case of `CN1CCN(Cc2ccc(-c3ccc4ncc(C#N)c(Nc5ccc(Sc6nccn6C)c(Cl)c5)c4c3)nc2)CC1` [Example 183, 4-({3-Chloro-4-[(1-methyl-1H-imidazol-2-yl)sulfanyl]phenyl}amino)-6-{5-[(4-methyl-1-piperazinyl)methyl]-2-pyridinyl}-3-quinolinecarbonitrile], the melting point is reported as 260 to 262 °C.
With `Cn1ccnc1Sc1ccc(Nc2c(C#N)cnc3cc(-c4ccc(C=O)cn4)ccc23)cc1Cl` [Example 170, 4-{3-Chloro-4-[(1-methyl-1H-imidazol-2-yl)sulfanyl]anilino}-7-(5-formyl-2-pyridinyl)-3-quinolinecarbonitrile] the melting point was 130 °C (dec.).
With `CN1CCN(Cc2cccnc2-c2ccc3c(Nc4ccc(Sc5nccn5C)c(Cl)c4)c(C#N)cnc3c2)CC1` [Example 209, 4-({3-Chloro-4-[(I -methyl-1H-imidazol-2-yl)sulfanyl]phenyl}amino)-7-{3-[(4-methyl-1-piperazinyl)methyl]-2-pyridinyl}-3-quinolinecarbonitrile] the melting point was 217 to 220 °C.
Compound `COc1cc(Nc2c(C#N)cnc3cc(-c4ccc(Cn5ccnn5)cc4)ccc23)c(Cl)cc1Cl` [Example 103, 4-[(2,4-Dichloro-5-methoxyphenyl)amino]-7-[4-(1H-1,2,3-triazol-1-ylmethyl)phenyl]-3-quinolinecarbonitrile] has a melting point of 239 to 240 °C.
`Cn1ccnc1Sc1ccc(Nc2c(C#N)cnc3cc(-c4ccc(CN5CCN(CCO)CC5)cn4)ccc23)cc1Cl` [Example 217, 4-({3-chloro-4-[(1-methyl-1H-imidazol-2-yl)sulfanyl]phenyl}amino)-7-(5-{[4-(2-hydroxy-ethyl)-1-piperazinyl]-methyl}-2-pyridinyl)-3-quinolinecarbonitrile] showed a melting point of 160 to 163 °C.
